Like-named read-outs stand apart in the source and are kept apart here.
How the values were obtained:
Assay in all cases: Biological Example 1 glasshouse assay for herbicidal activity
Format in all cases: in vivo
Setaria faberi (SETFA) = settings: 312 h, 13 days after application, read-out: percentage phytotoxicity SETFA
Description: (§1) Seeds of a variety of test plant species were sown in standard soil** in pots. After cultivation for one day (pre-emergence) or after 8 days cultivation (post-emergence) under controlled conditions in a glasshouse (at 24/16° C., day/night; 14 hours light; 65% humidity), the plants were sprayed with an aqueous spray solution derived from the formulation of the technical active ingredient (the test herbicide) in acetone/water (50:50) solution containing 0.5% Tween 20 (polyoxyethylene sorbitan monolaurate, CAS Reg. No. 9005-64-5). The test plants were then grown on under controlled conditions in a glasshouse (at 24/16° C., day/night; 14 hours light; 65% humidity) and watered twice daily. 13 Days after application of the test herbicide, for pre- and post-emergence, the test was evaluated visually for percentage phytotoxicity to each plant (where 100%=total damage to plant; 0%=no damage to plant). Generally, each test herbicide is only tested on 1 plant per plant species for each application rate tested and for each application timing. **The “standard soil” in Biological Example 1 is usually a “sand” or “sandy loam” type of soil.
(§2) Dicotyledonous weeds: ABUTH=Abutilon theophrasti; AMARE=Amaranthus retroflexus. Grassy monocotyledonous weeds: SETFA=Setaria faberi; ALOMY=Alopecurus myosuroides; ECHCG=Echinochloa crus-galli; ZEAMX=Zea mays (corn, maize, e.g. volunteer corn).

[1] = system: Alopecurus myosuroides (ALOMY); settings: 312 h, 13 days after application, read-out: percentage phytotoxicity ALOMY
Description: as §1, §2

[2] = system: Amaranthus retroflexus (AMARE); settings: Amaranthus retroflexus, 312 h, 13 days after application, read-out: percentage phytotoxicity AMARE
Description: as §1, §2

[3] = system: Echinochloa crus-galli (ECHCG); settings: Echinochloa crus-galli, 312 h, 13 days after application, read-out: percentage phytotoxicity ECHCG
Description: as §1, §2

[4] = system: Abutilon theophrasti (ABUTH); settings: 312 h, 13 days after application, read-out: percentage phytotoxicity ABUTH
Description: as §1, §2

[5] = system: Zea mays (ZEAMX, corn, maize, e.g. volunteer corn); settings: Zea mays, 312 h, 13 days after application, read-out: percentage phytotoxicity ZEAMX
Description: as §1, §2

## CC#Cc1cc(F)c(C2C(=O)C3CCC(C3)C2=O)c(OCC)c1 (stereo not drawn) [Compound A4]
Setaria faberi (SETFA); post-emergence, post-emergence
  pest or weed control at 30 g/ha: 70%
  pest or weed control at 250 g/ha: 100%
Setaria faberi (SETFA); pre-emergence, pre-emergence
  pest or weed control at 30 g/ha: 50%
  pest or weed control at 250 g/ha: 70%
[1]; post-emergence
  pest or weed control at 30 g/ha: 80%
  pest or weed control at 250 g/ha: 90%
[1]; pre-emergence
  pest or weed control at 30 g/ha: 70%
  pest or weed control at 250 g/ha: 90%
[2]; post-emergence, post-emergence
  pest or weed control at 30 g/ha: 20%
  pest or weed control at 250 g/ha: 50%
[2]; pre-emergence, pre-emergence
  pest or weed control at 30 g/ha: 40%
  pest or weed control at 250 g/ha: 50%
[3]; post-emergence, post-emergence
  pest or weed control at 30 g/ha: 90%
  pest or weed control at 250 g/ha: 100%
[3]; pre-emergence, pre-emergence
  pest or weed control at 30 g/ha: 90%
  pest or weed control at 250 g/ha: 100%
[4]; post-emergence, post-emergence
  pest or weed control at 30 g/ha: 10%
  pest or weed control at 250 g/ha: 30%
[4]; pre-emergence, pre-emergence
  pest or weed control at 30 g/ha: 20%
  pest or weed control at 250 g/ha: 30%
[5]; post-emergence, post-emergence
  pest or weed control at 30 g/ha: 100%
  pest or weed control at 250 g/ha: 100%
[5]; pre-emergence, pre-emergence
  pest or weed control at 30 g/ha: 80%
  pest or weed control at 250 g/ha: 100%

## CC#Cc1cc(F)c(C2C(=O)C3CCC(C)(C2=O)C3(C)C)c(OCC(F)(F)F)c1 (stereo not drawn) [Compound A9]
Setaria faberi (SETFA); post-emergence, post-emergence
  pest or weed control at 250 g/ha: 20%
[1]; post-emergence
  pest or weed control at 250 g/ha: 10%
[2]; post-emergence, post-emergence
  pest or weed control at 250 g/ha: 0%
[3]; post-emergence, post-emergence
  pest or weed control at 250 g/ha: 10%
[4]; post-emergence, post-emergence
  pest or weed control at 250 g/ha: 0%
[5]; post-emergence, post-emergence
  pest or weed control at 250 g/ha: 20%

## CC#Cc1cc(F)c(C2C(=O)C3CCC(C)(C2=O)C3(C)C)c(OCCOC)c1 (stereo not drawn) [Compound A10]
Setaria faberi (SETFA); post-emergence, post-emergence
  pest or weed control at 250 g/ha: 0%
[1]; post-emergence
  pest or weed control at 250 g/ha: 0%
[2]; post-emergence, post-emergence
  pest or weed control at 250 g/ha: 0%
[3]; post-emergence, post-emergence
  pest or weed control at 250 g/ha: 0%
[4]; post-emergence, post-emergence
  pest or weed control at 250 g/ha: 0%
[5]; post-emergence, post-emergence
  pest or weed control at 250 g/ha: 40%

## C#Cc1cc(F)c(C2C(=O)C3CCC(C3)C2=O)c(OC)c1 (stereo not drawn) [Compound B1]
Setaria faberi (SETFA); post-emergence, post-emergence
  pest or weed control at 8 g/ha: 70%
  pest or weed control at 30 g/ha: 70%
  pest or weed control at 250 g/ha: 90%
Setaria faberi (SETFA); pre-emergence, pre-emergence
  pest or weed control at 8 g/ha: 40%
  pest or weed control at 30 g/ha: 60%
  pest or weed control at 250 g/ha: 100%
[1]; post-emergence
  pest or weed control at 8 g/ha: 0%
  pest or weed control at 30 g/ha: 20%
  pest or weed control at 250 g/ha: 80%
[1]; pre-emergence
  pest or weed control at 8 g/ha: 0%
  pest or weed control at 30 g/ha: 10%
  pest or weed control at 250 g/ha: 90%
[2]; post-emergence, post-emergence
  pest or weed control at 8 g/ha: 0%
  pest or weed control at 30 g/ha: 0%
  pest or weed control at 250 g/ha: 20%
[2]; pre-emergence, pre-emergence
  pest or weed control at 8 g/ha: 30%
  pest or weed control at 30 g/ha: 50%
  pest or weed control at 250 g/ha: 30%
[3]; post-emergence, post-emergence
  pest or weed control at 8 g/ha: 20%
  pest or weed control at 30 g/ha: 70%
  pest or weed control at 250 g/ha: 100%
[3]; pre-emergence, pre-emergence
  pest or weed control at 8 g/ha: 50%
  pest or weed control at 30 g/ha: 50%
  pest or weed control at 250 g/ha: 90%
[4]; post-emergence, post-emergence
  pest or weed control at 8 g/ha: 50%
  pest or weed control at 30 g/ha: 50%
  pest or weed control at 250 g/ha: 70%
[4]; pre-emergence, pre-emergence
  pest or weed control at 8 g/ha: 10%
  pest or weed control at 30 g/ha: 20%
  pest or weed control at 250 g/ha: 0%
[5]; post-emergence, post-emergence
  pest or weed control at 8 g/ha: 80%
  pest or weed control at 30 g/ha: 90%
  pest or weed control at 250 g/ha: 100%
[5]; pre-emergence, pre-emergence
  pest or weed control at 8 g/ha: 0%
  pest or weed control at 30 g/ha: 70%
  pest or weed control at 250 g/ha: 100%
